{"source": "patent US8986961B2", "about": "“Fermentative production of acetone from renewable resources by means of novel metabolic pathway” (Evonik Degussa GmbH, priority 2007, dated 2015)", "key": {"[1]": {"target": "YbgC acyl-CoA thioesterase (EC 3.1.2.18) (Haemophilus influenzae, UniProt P44679)", "sequence (P44679 whole entry)": "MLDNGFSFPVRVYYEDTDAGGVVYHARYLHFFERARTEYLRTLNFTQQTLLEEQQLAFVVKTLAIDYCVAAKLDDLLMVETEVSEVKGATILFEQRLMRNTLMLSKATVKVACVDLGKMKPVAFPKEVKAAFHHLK", "settings": "Zhuang et al. 2002; read-out: Km of YbgC for substrate; cited from earlier work"}, "[2]": {"test_system": "acyl-CoA synthetase/acyl-CoA thiokinase (with AMP formation; EC 6.2.1.2)", "settings": "purified enzyme, Shimizu et al. 1981; read-out: Km for substrate; cited from earlier work"}, "[3]": {"target": "T1, Thioesterase II (TEIIsrf) (Bacillus subtilis, UniProt Q08788)", "T1 sequence (Q08788 with tags, fused parts or gaps)": "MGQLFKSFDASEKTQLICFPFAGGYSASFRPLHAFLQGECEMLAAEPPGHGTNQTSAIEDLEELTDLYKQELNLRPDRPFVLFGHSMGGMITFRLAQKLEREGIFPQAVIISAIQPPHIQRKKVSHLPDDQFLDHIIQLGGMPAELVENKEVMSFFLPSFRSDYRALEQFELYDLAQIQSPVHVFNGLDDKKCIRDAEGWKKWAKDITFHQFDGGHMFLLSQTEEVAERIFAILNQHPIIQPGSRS", "settings": "read-out: Km of TEIIsrf for substrate; purified His-tagged TEIIsrf, DTNB assay 412 nm, Lineweaver-Burk", "experimental": "(§1) The intended activity measurement using the DTNB assay [5,5′-dithiobis(2-nitrobenzoic acid)], with which free SH groups are determined, required purification of the protein. This took place with the assistance of FPLC via the fused His tag of TEIIsrf by means of metal chelate affinity chromatography on Ni^2+-NTA agarose and increasing imidazole gradient.\n(§2) For this purpose, initially the cells were harvested (5000×g, 15 min, 4° C.), suspended in 3 ml/g fresh weight of cell disruption buffer (50 mM HEPES, 300 mM NaCl, pH 7.8) and stored if necessary at −20° C. The cells were disrupted by ultrasound treatment (Sonicator Bandelin Sonopuls, Bandelin Berlin), and the crude extract was obtained by centrifugation (30 000×g, 30 min, 4° C.). Purification took place on an FPLC system (Pharmacia Biotech GmbH). 3.5 ml of crude extract were loaded onto the Ni^2+-NTA agarose column (Qiagen Superflow, bed volume 5 ml) which had been prepared and equilibrated (50 mM HEPES, 300 mM NaCl, 30 mM imidazole, pH 7) in accordance with the manufacturer's instructions. […]\n(§3) The resulting fractions were combined and employed for the activity determination. […] In the DTNB assay, the terminal sulfhydryl group of CoA, which has been liberated by the enzymatic conversion to acetoacetate or acetate, reacts with DTNB to give a coloured product which can be determined by photometry at 412 nm."}, "[4]": {"test_system": "CC(=O)CC(=O)SCCNC(=O)CCNC(=O)[C@H](O)C(C)(C)COP(=O)(O)OP(=O)(O)OC[C@H]1O[C@@H](n2cnc3c(N)ncnc32)[C@H](O)[C@@H]1OP(=O)(O)O", "assay": "purified protein, by the assay type", "settings": "other: YbgC elution fractions (IMPACT system), DTNB assay; measurements varied", "experimental": "as §3\nExpression took place in E. coli BL21 (DE3) in LBAmp medium until induction at an OD600nm of ˜0.5 with 0.5 mM IPTG at 37° C., and thereafter the culture was incubated at 20° C. and 150 rpm for a further 6 h. The heterologously expressed fusion protein (approx. 70 kDa) binds to chitin. Addition of DTT causes a conformational change and induces cutting out of the target protein (approx. 15 kDa), which can subsequently be eluted."}, "[5]": {"test_system": "CC(=O)SCCNC(=O)CCNC(=O)[C@H](O)C(C)(C)COP(=O)(O)OP(=O)(O)OC[C@H]1O[C@@H](n2cnc3c(N)ncnc32)[C@H](O)[C@@H]1OP(=O)(O)O", "assay": "purified protein, by the assay type", "settings": "other: YbgC elution fractions (IMPACT system), DTNB assay; measurements varied"}, "[6]": {"target": "T2, Acetoacetyl-CoA synthetase (AACS) (Rhizobium meliloti, UniProt Q9Z3R3)", "T2 sequence (Q9Z3R3 1-650)": "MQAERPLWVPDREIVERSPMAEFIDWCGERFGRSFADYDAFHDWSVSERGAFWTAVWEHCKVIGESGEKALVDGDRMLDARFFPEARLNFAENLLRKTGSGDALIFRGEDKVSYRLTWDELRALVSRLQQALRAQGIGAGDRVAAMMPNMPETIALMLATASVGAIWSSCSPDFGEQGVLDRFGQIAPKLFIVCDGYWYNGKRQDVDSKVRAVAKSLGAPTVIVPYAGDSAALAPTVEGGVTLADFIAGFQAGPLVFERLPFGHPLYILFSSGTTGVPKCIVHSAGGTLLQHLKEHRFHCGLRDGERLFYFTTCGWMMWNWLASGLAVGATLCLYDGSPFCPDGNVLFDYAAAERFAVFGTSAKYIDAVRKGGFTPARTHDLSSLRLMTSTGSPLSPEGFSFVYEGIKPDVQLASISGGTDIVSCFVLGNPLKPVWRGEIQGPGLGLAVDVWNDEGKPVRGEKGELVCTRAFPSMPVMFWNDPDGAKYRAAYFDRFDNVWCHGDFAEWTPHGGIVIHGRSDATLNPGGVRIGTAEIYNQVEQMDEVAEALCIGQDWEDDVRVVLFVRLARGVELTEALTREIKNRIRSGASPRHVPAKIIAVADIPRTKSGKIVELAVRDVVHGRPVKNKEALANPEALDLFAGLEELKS", "settings": "purified AACS, DTNB assay", "text": "as §3"}, "E. coli HB101": {"test_system": "E. coli HB101", "assay": "Acetone formation in E. coli HB101, 5 ml cultures", "type": "cell-based, Escherichia coli", "settings": "HB101, LBAmp, 5 ml culture, 37° C., glucose 20 g/l, cell-free supernatant, gas chromatography", "procedure": "All the resulting plasmid variants (see Table 1) were investigated for acetone formation in the E. coli cloning strain HB101. The analyses took place on the 5 ml scale in LB medium with ampicillin (100 μg/ml) after inoculation from appropriate precultures and after incubation at 37° C. and 200 rpm. The optical density (600 nm) was followed by photometry and, at a value of about 0.5-0.6, expression of the cloned genes was induced by adding 1 mM IPTG (isopropyl β-D-thiogalactopyrano-side) and, after 3-4 h, glucose (20 g/l) was added. No induction took place with the variants under the control of the thiolase promoter because it was assumed that constitutive expression takes place. Samples were taken at particular times over a period of about 48 h, and the concentration of acetone and acetate in the cell-free medium supernatant was determined by gas chromatography. Additional glucose doses optionally took place in varying amounts (in the range 10-40 g/l) either 4 h after induction or else simultaneously with the induction."}, "[7]": {"substrate": "CC(=O)CC(=O)SCCNC(=O)CCNC(=O)[C@H](O)C(C)(C)COP(=O)(O)OP(=O)(O)OC[C@H]1O[C@@H](n2cnc3c(N)ncnc32)[C@H](O)[C@@H]1OP(=O)(O)O", "assay": "purified protein, by the assay type", "settings": "other: purified His-tagged TEIIsrf, DTNB assay 412 nm, Lineweaver-Burk", "experimental": "as §1, §2, §3"}, "[8]": {"substrate": "CC(=O)SCCNC(=O)CCNC(=O)[C@H](O)C(C)(C)COP(=O)(O)OP(=O)(O)OC[C@H]1O[C@@H](n2cnc3c(N)ncnc32)[C@H](O)[C@@H]1OP(=O)(O)O", "assay": "purified protein, by the assay type", "settings": "other: purified His-tagged AACS (peak 2), DTNB assay"}}, "note": "Several values for one entry are separate records, joined by “and”; a condition that tells them apart may be missing. Equal entries are not always repeated."}
{"molecule": "β-hydroxybutyrate-CoA", "values": [{"measurement": "Km", "setting": "[1]", "value": 20, "unit": "mM"}, {"measurement": "Km", "setting": "[2]", "value": 25, "unit": "µM"}]}
{"molecule": "CC(=O)SCCNC(=O)CCNC(=O)[C@H](O)C(C)(C)COP(=O)(O)OP(=O)(O)OC[C@H]1O[C@@H](n2cnc3c(N)ncnc32)[C@H](O)[C@@H]1OP(=O)(O)O", "note": "[acetyl-CoA]", "values": [{"measurement": "Km", "setting": "[3]", "value": 200, "unit": "µM"}]}
{"molecule": "Acyl-CoA thioesterase YbgC (Haemophilus influenzae Rd KW20)", "values": [{"measurement": "Km", "setting": "[4]", "value": 140, "unit": "µM"}, {"measurement": "Km", "setting": "[5]", "value": 530, "unit": "µM"}]}
{"molecule": "CCCC(=O)SCCNC(=O)CCNC(=O)[C@H](O)C(C)(C)COP(=O)(O)OP(=O)(O)OC[C@H]1O[C@@H](n2cnc3c(N)ncnc32)[C@H](O)[C@@H]1OP(=O)(O)O", "note": "[butyryl-CoA]", "values": [{"measurement": "Km", "setting": "[1]", "value": 24, "unit": "mM"}, {"measurement": "Km", "setting": "[2]", "value": 10, "unit": "µM"}]}
{"molecule": "CC(=O)CC(=O)SCCNC(=O)CCNC(=O)[C@H](O)C(C)(C)COP(=O)(O)OP(=O)(O)OC[C@H]1O[C@@H](n2cnc3c(N)ncnc32)[C@H](O)[C@@H]1OP(=O)(O)O", "note": "[acetoacetyl-CoA]", "values": [{"measurement": "specific activity of the enzyme with substrate", "setting": "[6]", "value": 0.0038, "unit": "µmol/min/mg"}]}
{"molecule": "pUC18att: plasmid SEQ ID No. 10; teIIsrf, adc, thlA in pUC18 under thl promoter", "values": [{"measurement": "Max. acetone concentration", "setting": "E. coli HB101", "value": "35 mM and 2.0 g/l"}]}
{"molecule": "CCC(=O)C(=O)O", "note": "[2-ketobutyrate]", "values": [{"measurement": "Km", "setting": "[2]", "value": 25, "unit": "µM"}]}
{"molecule": "Thioesterase II (TEIIsrf) (Bacillus subtilis subsp. subtilis str. 168) (protein) MGQLFKSFDASEKTQLICFPFAGGYSASFRPLHAFLQGECEMLAAEPPGHGTNQTSAIEDLEELTDLYKQELNLRPDRPFVLFGHSMGGMITFRLAQKLEREGIFPQAVIISAIQPPHIQRKKVSHLPDDQFLDHIIQLGGMPAELVENKEVMSFFLPSFRSDYRALEQFELYDLAQIQSPVHVFNGLDDKKCIRDAEGWKKWAKDITFHQFDGGHMFLLSQTEEVAERIFAILNQHPIIQPGSRS", "values": [{"measurement": "Km", "setting": "[7]", "value": 770, "unit": "µM"}]}
{"molecule": "Acetoacetyl-CoA synthetase (AACS) (Sinorhizobium meliloti 1021) (protein) MQAERPLWVPDREIVERSPMAEFIDWCGERFGRSFADYDAFHDWSVSERGAFWTAVWEHCKVIGESGEKALVDGDRMLDARFFPEARLNFAENLLRKTGSGDALIFRGEDKVSYRLTWDELRALVSRLQQALRAQGIGAGDRVAAMMPNMPETIALMLATASVGAIWSSCSPDFGEQGVLDRFGQIAPKLFIVCDGYWYNGKRQDVDSKVRAVAKSLGAPTVIVPYAGDSAALAPTVEGGVTLADFIAGFQAGPLVFERLPFGHPLYILFSSGTTGVPKCIVHSAGGTLLQHLKEHRFHCGLRDGERLFYFTTCGWMMWNWLASGLAVGATLCLYDGSPFCPDGNVLFDYAAAERFAVFGTSAKYIDAVRKGGFTPARTHDLSSLRLMTSTGSPLSPEGFSFVYEGIKPDVQLASISGGTDIVSCFVLGNPLKPVWRGEIQGPGLGLAVDVWNDEGKPVRGEKGELVCTRAFPSMPVMFWNDPDGAKYRAAYFDRFDNVWCHGDFAEWTPHGGIVIHGRSDATLNPGGVRIGTAEIYNQVEQMDEVAEALCIGQDWEDDVRVVLFVRLARGVELTEALTREIKNRIRSGASPRHVPAKIIAVADIPRTKSGKIVELAVRDVVHGRPVKNKEALANPEALDLFAGLEELKS", "values": [{"measurement": "Km", "setting": "[8]", "value": 700, "unit": "µM"}]}
